According to patent US6664231B1, “Anti-fungal peptides” (priority 1993, dated 2003):
Square brackets hold non-standard residues; d marks the D form. Ends that are not written are not given here. Peptide text beside a SMILES is read from it. Phe(4-NH2) = Nc1ccc(C[C@H](N)C(=O)O)cc1; 1Nal = N[C@@H](Cc1cccc2ccccc12)C(=O)O; d2Nal = N[C@H](Cc1ccc2ccccc2c1)C(=O)O

Test system: C. albicans (CA-1, Strain SLU-1)
Test: Radial diffusion assay
Type: cell-based, Candida albicans
Details: for C. albicans pmol/30 mm^2 zone: pmoles of peptide added to well to achieve a 30 mm^2 zone, PROBIT analysis, crude or purified (P′) peptide; for Plate Assay (nmol), crude peptide activity / Plate Assay (nmol), pure peptide activity: nanomoles required to achieve a net 30 mm^2 zone (log titration curve); for Plate Assay (nmol), pure peptide activity: HPLC-purified peptide
Description: In the radial diffusion assay procedures, the CA-1 cultures and peptide solutions were prepared as in the broth assay procedure described above. Ten mL of molten underlayer agarose comprising 3% Sabouraud Dextrose broth, 1% agarose (Pharmacia, Piscataway, N.J.), 0.02% Tween 20, and 10 mM sodium phosphate at pH 7.4, was added to polystyrene tubes and maintained in a 56° C. water bath until the addition of yeast. Tubes were cooled to approximately 45° C., yeast were added to give a final concentration of 1×10^6 CFU/mL, and the tubes were mixed again by inverting. The contents were poured into level square petri dishes and distributed evenly. […] A series of wells were punched into the hardened agarose using a sterile 3 mm punch attached to a vacuum apparatus.
Peptides to be assayed were 2-fold serially diluted in Dulbecco's PBS (D-PBS) starting from a concentration of approximately 1 mg/mL. Five μL of each dilution were added to each well and the plates were incubated at 37° C. for 3 hours. An overlayer of 10 mL of molten agarose comprising 6% Sabouraud Dextrose broth, 1% agarose, and 10 mM sodium phosphate, pH 7.4, (at approximately 45° C.) was then added and plates were incubated overnight at 37° C. Following this overnight incubation, a dilute Coomassie solution was poured into the plates and allowed to stain for 24 hours.
Clear zones of growth inhibition around each well were measured with calipers. The actual area of growth inhibition (mm^2) was calculated by subtracting the area of the well. Table 1 below sets out the results of the radial diffusion assays for tested peptides in terms of the number of picomoles (pmol) of peptide required to establish a 30 mm^2 area of growth inhibition calculated by PROBIT analysis (e.g., calculated from regression of the linear portion of log-concentration dose-response curve, log pmol/well vs. net area of inhibition).

Row | Compound | C. albicans pmol/30 mm^2 zone | other results
1 | CC[C@H](C)[C@H](NC(=O)[C@H](CC(C)C)NC(=O)[C@H](Cc1c[nH]c2ccccc12)NC(=O)[C@H](Cc1ccc(N)cc1)NC(=O)[C@@H](NC(=O)[C@H](CCCCN)NC(=O)[C@H](CO)NC(=O)[C@@H](N)CCCCN)C(C)C)C(=O)N[C@@H](Cc1ccc(N)cc1)C(=O)N[C@@H](CC(C)C)C(=O)N[C@@H](Cc1ccccc1)C(=O)N[C@@H](Cc1c[nH]cn1)C(=O)N[C@@H](CCCCN)C(=O)N[C@@H](CCCCN)C(N)=O [XMP.238] (H-KSKV[Phe(4-NH2)]WLI[Phe(4-NH2)]LFHKK-NH2) | 2,702 pmol/30 mm^2 zone | 
2 | H-KSKVKVLIQLFHKK-NH2 [XMP.266] | 984 pmol/30 mm^2 zone | 
3 | CC[C@H](C)[C@H](NC(=O)[C@H](CC(C)C)NC(=O)[C@H](Cc1c[nH]c2ccccc12)NC(=O)CNC(=O)[C@@H](NC(=O)[C@H](CCCCN)NC(=O)[C@H](CO)NC(=O)[C@@H](N)CCCCN)C(C)C)C(=O)N[C@@H](CCC(N)=O)C(=O)N[C@@H](CC(C)C)C(=O)N[C@@H](Cc1ccccc1)C(=O)N[C@@H](Cc1c[nH]cn1)C(=O)N[C@@H](CCCCN)C(=O)N[C@@H](Cc1cccc2ccccc12)C(N)=O [XMP.111] (H-KSKVGWLIQLFHK[1Nal]-NH2) | >2809 pmol/30 mm^2 zone | 
4 | H-WLIQL-NH2 [XMP.320] | >4,055 pmol/30 mm^2 zone | 
5 | H-KVKWLI-NH2 [compound 313] |  | Plate Assay (nmol), crude peptide activity: >11.05 nmol
6 | H-KSKVGWLITLFHKK-NH2 [XMP.106] | 1032 pmol/30 mm^2 zone | 
7 | H-SKVKWLIQLFH-NH2 [Peptide 287] |  | Plate Assay (nmol), crude peptide activity: >3.509 nmol
8 | H-VKWLIQLFHK-NH2 [XMP.292] | >4,463 pmol/30 mm^2 zone | 
9 | CC[C@H](C)[C@H](NC(=O)[C@H](CC(C)C)NC(=O)[C@@H](Cc1ccccc1)NC(=O)CNC(=O)[C@@H](NC(=O)[C@H](CCCCN)NC(=O)[C@H](CO)NC(=O)[C@@H](N)CCCCN)C(C)C)C(=O)N[C@@H](CCC(N)=O)C(=O)N[C@@H](CC(C)C)C(=O)N[C@@H](Cc1ccccc1)C(=O)N[C@@H](Cc1c[nH]cn1)C(=O)N[C@@H](CCCCN)C(=O)N[C@@H](CCCCN)C(N)=O [XMP.128] | 1179 pmol/30 mm^2 zone | 
10 | H-KSKVGLLIQLFHKK-NH2 [XMP.250] | 536 pmol/30 mm^2 zone | 
11 | XMP.137: C-148-161-C (SEQ ID NO:56) (CKSKVGWLIQLFHKKC) | >2286 pmol/30 mm^2 zone | 
12 | H-KSKVGWLIFLFHKKKSKVGWLIQLFHKK-NH2 [XMP.273] | >2,120 pmol/30 mm^2 zone | 
13 | H-KVKWLI-NH2 [XMP.313] | >11,050 pmol/30 mm^2 zone | 
14 | CC[C@H](C)[C@H](NC(=O)[C@H](CC(C)C)NC(=O)[C@H](Cc1c[nH]c2ccccc12)NC(=O)CNC(=O)[C@@H](NC(=O)[C@H](CCCCN)NC(=O)[C@H](CO)NC(=O)[C@@H](N)CCCCN)C(C)C)C(=O)N[C@@H](Cc1ccc(N)cc1)C(=O)N[C@@H](CC(C)C)C(=O)N[C@@H](Cc1ccccc1)C(=O)N[C@@H](Cc1c[nH]cn1)C(=O)N[C@@H](CCCCN)C(=O)N[C@@H](Cc1cccc2ccccc12)C(N)=O [XMP.228] (H-KSKVGWLI[Phe(4-NH2)]LFHK[1Nal]-NH2) | b (No detectable activity up to 5 μg/well) | 
15 | H-KSKVGWLILLFHKKKSKVGWLIQLFHKK-NH2 [XMP.270] | >722 pmol/30 mm^2 zone | 
16 | CC[C@H](C)[C@H](NC(=O)[C@H](CC(C)C)NC(=O)[C@H](Cc1c[nH]c2ccccc12)NC(=O)CNC(=O)[C@@H](NC(=O)[C@H](CCCCN)NC(=O)[C@H](CO)NC(=O)[C@@H](N)CCCCN)C(C)C)C(=O)N[C@@H](Cc1ccc(N)cc1)C(=O)N[C@@H](CC(C)C)C(=O)N[C@@H](Cc1ccccc1)C(=O)N[C@@H](Cc1c[nH]cn1)C(=O)N[C@@H](CCCCN)C(=O)N[C@@H](CCCCN)C(N)=O [XMP.123] (H-KSKVGWLI[Phe(4-NH2)]LFHKK-NH2) | 1721 pmol/30 mm^2 zone | 
17 | KKVLIQLKK-NH2 [XMP.343] | 245 pmol/30 mm^2 zone | 
18 | CC[C@H](C)[C@H](NC(=O)[C@H](CC(C)C)NC(=O)[C@H](Cc1c[nH]c2ccccc12)NC(=O)CNC(=O)[C@@H](NC(=O)[C@H](CCCCN)NC(=O)[C@H](CO)NC(=O)[C@@H](N)CCCCN)C(C)C)C(=O)N[C@@H](Cc1ccc(N)cc1)C(=O)N[C@@H](CC(C)C)C(=O)N[C@@H](Cc1c[nH]c2ccccc12)C(=O)N[C@@H](Cc1c[nH]cn1)C(=O)N[C@@H](CCCCN)C(=O)N[C@@H](CCCCN)C(N)=O [XMP.239] (H-KSKVGWLI[Phe(4-NH2)]LWHKK-NH2) | >2,802 pmol/30 mm^2 zone | 
19 | H-KSKVGWLILLFHKK-NH2 [XMP.86] | >2048 pmol/30 mm^2 zone | 

Row | Compound | C. albicans pmol/30 mm^2 zone | other results
20 | H-KSKVGWLILLFHKKKSKVGWLILLFHKK-NH2 [XMP.272] | >2,599 pmol/30 mm^2 zone | 
21 | CC[C@H](C)[C@H](NC(=O)[C@H](CC(C)C)NC(=O)[C@@H](N)Cc1c[nH]c2ccccc12)C(=O)N[C@@H](CCC(N)=O)C(=O)N[C@@H](CC(C)C)C(=O)N[C@@H](Cc1ccccc1)C(=O)N[C@@H](Cc1c[nH]cn1)C(=O)N[C@@H](CCCCN)C(N)=O [XMP.303] | >4,694 pmol/30 mm^2 zone | C. albicans pmol/30 mm^2 zone (listed as XMP.303P′): 1,307 pmol/30 mm^2 zone
22 | H-WLIQLF-NH2 [XMP.316] | b (No detectable activity up to 5 μg/well) | C. albicans pmol/30 mm^2 zone (listed as XMP.316P′): g (inactive to 7,194 pmol)
23 | H-KVKWLIQLF-NH2 [XMP.295] | >1,977 pmol/30 mm^2 zone | C. albicans pmol/30 mm^2 zone (listed as XMP.295P′): >2,612 pmol/30 mm^2 zone
24 | H-VKWLIQL-NH2 [Peptide 307] |  | Plate Assay (nmol), crude peptide activity: >8.345 nmol
25 | H-KVKWLIQLFHK-NH2 [Peptide 288] |  | Plate Assay (nmol), pure peptide activity: 0.279 nmol; Plate Assay (nmol), crude peptide activity: 3.639 nmol
26 | CC[C@H](C)[C@H](NC(=O)[C@H](CC(C)C)NC(=O)[C@H](Cc1ccc(N)cc1)NC(=O)[C@H](CCCCN)NC(=O)[C@@H](N)CCCCN)C(=O)N[C@@H](CCC(N)=O)C(=O)N[C@@H](CC(C)C)C(=O)N[C@@H](CCCCN)C(=O)N[C@@H](CCCCN)C(N)=O [XMP.346] (H-KK[Phe(4-NH2)]LIQLKK-NH2) | 640 pmol/30 mm^2 zone | 
27 | H-KSKVFWLIQLFHKK-NH2 [XMP.95] | >1398 pmol/30 mm^2 zone | 
28 | H-VKWLIQLF-NH2 [XMP.301] | b (No detectable activity up to 5 μg/well) | 
29 | CC[C@H](C)[C@H](NC(=O)[C@H](CC(C)C)NC(=O)[C@@H](Cc1ccc2ccccc2c1)NC(=O)CNC(=O)[C@@H](NC(=O)[C@H](CCCCN)NC(=O)[C@H](CO)NC(=O)[C@@H](N)CCCCN)C(C)C)C(=O)N[C@@H](CCC(N)=O)C(=O)N[C@@H](CC(C)C)C(=O)N[C@@H](Cc1c[nH]c2ccccc12)C(=O)N[C@@H](Cc1c[nH]cn1)C(=O)N[C@@H](CCCCN)C(=O)N[C@@H](CCCCN)C(N)=O [XMP.243] (H-KSKVG[d2Nal]LIQLWHKK-NH2) | 716 pmol/30 mm^2 zone | 
30 | H-KSKVGWLIQLFAKK-NH2 [XMP.42] | 548 pmol/30 mm^2 zone | 
31 | H-KSKVGWLIALFHKK-NH2 [XMP.39] | 1792 pmol/30 mm^2 zone | 
32 | H-LIQLFHKK-NH2 [XMP.304] | >8,290 pmol/30 mm^2 zone | 
33 | CC[C@H](C)[C@H](NC(=O)[C@H](CC(C)C)NC(=O)[C@H](Cc1c[nH]c2ccccc12)NC(=O)[C@H](Cc1ccc(N)cc1)NC(=O)[C@@H](NC(=O)[C@H](CCCCN)NC(=O)[C@H](CO)NC(=O)[C@@H](N)CCCCN)C(C)C)C(=O)N[C@@H](CCC(N)=O)C(=O)N[C@@H](CC(C)C)C(=O)N[C@@H](Cc1ccccc1)C(=O)N[C@@H](Cc1c[nH]cn1)C(=O)N[C@@H](CCCCN)C(=O)N[C@@H](CCCCN)C(N)=O [XMP.134] | 1255 pmol/30 mm^2 zone | 
34 | H-VKWLIQ-NH2 [compound 314] |  | Plate Assay (nmol), crude peptide activity: 13.497 nmol
35 | H-VKWLIQ-NH2 [XMP.314] | >13,497 pmol/30 mm^2 zone | 
36 | XMP.392: 150-161, P @ 152 (G) (SEQ ID NO:223) (KVPWLIQLFHKK) | 569 pmol/30 mm^2 zone | 
37 | H-KVKWLIQL-NH2 [Peptide 300] |  | Plate Assay (nmol), pure peptide activity: 0.993 nmol; Plate Assay (nmol), crude peptide activity: 1.957 nmol
38 | CC[C@H](C)[C@H](NC(=O)[C@H](CC(C)C)NC(=O)[C@H](Cc1c[nH]c2ccccc12)NC(=O)[C@H](Cc1ccc(N)cc1)NC(=O)[C@@H](NC(=O)[C@H](CCCCN)NC(=O)[C@H](CO)NC(=O)[C@@H](N)CCCCN)C(C)C)C(=O)N[C@@H](CCC(N)=O)C(=O)N[C@@H](CC(C)C)C(=O)N[C@@H](Cc1c[nH]c2ccccc12)C(=O)N[C@@H](Cc1c[nH]cn1)C(=O)N[C@@H](CCCCN)C(=O)N[C@@H](CCCCN)C(N)=O [XMP.240] (H-KSKV[Phe(4-NH2)]WLIQLWHKK-NH2) | >2,802 pmol/30 mm^2 zone | 
